The source of these data is PMC8152814, “The modulatory role of sulfated and non-sulfated small molecule heparan sulfate-glycomimetics in endothelial dysfunction: absolute structural clarification, molecular docking and simulated dynamics, SAR analyses and ADMET studies” (RSC Medicinal Chemistry, 2021).

The subject of series [1] is reactive oxygen species (ROS). The experiment in a line: ROS production in FFA-stressed cells. The settings on record: averaged % of increase (+) or decrease (−) compared to control (FFA induced oxidatively stressed endothelial cells), n = 3. Type of series: cell-based, human. From the text:
(§1) The assays focused on the production of nitric oxide (NO) and the upregulation of nitric oxide synthase (eNOS), the production of reactive oxygen species (ROS) and the activity of nicotinamide adenine dinucleotide phosphate (NADPH) oxidase (Table 2). From the hypothesised model of heparan sulfate-glycomimetic activity,[17] the glycomimetics are proposed to attenuate the binding of HGF to the cMET receptor. This disruption to MET-receptor activation is proposed to modulate intracellular phosphorylation leading to an upregulation of eNOS and increased output of extracellular NO. […] Overall, the cross examination of NO output and reduction of ROS was used to determine the therapeutic action of the triaged glycomimetics α-4, R-10, S-10 and β-5, as well as 3 non-sulfated intermediates α-2, α-3 and β-3, on free fatty acid (FFA) induced, oxidatively stressed endothelial cell cultures (Table 2).
(§2) Biological assay and AMDET experimental details […]
(§3) Preparation of FFA-albumin complexes and cell treatments
(§4) To generate the in vitro model of oxidative stress, sodium palmitate was bound to bovine serum albumin (BSA) as outlined by Chavez and Summers,S2 with modifications. Sodium palmitate (FFA) was dissolved in EtOH at 60 °C and diluted 1:100 in M199 media supplemented with 2% fatty acid-free bovine serum albumin (BSA) and incubated for 1 h at 37 °C. HepG2 cells were treated with 1 μmol/L of the synthesized HS-glycomimetics in the presence of palmitate (100 μmol/L) for 3 h or pre-treated with glycomimetics for 12 h followed by 3 h palmitate (100 μmol/L). Control cells were incubated in serum free M199 containing 2% (wt/vol) fatty acid-free BSA.
NO release assay and Quantification of ROS production […]
The auto-fluorescence was subtracted from each value. Cells were incubated with 10 μmol/L of the fluorescent probe: 2′-7′-dichlorodihydrofluorescein diacetate (CM-H2DCFDA, Sigma) for 30 min at 37 °C, and the level of fluorescence was determined (excitation 490 nm; emission 540 nm) using a microplate reader (BioTek).
(§5) The level of NADPH-enhanced superoxide anions (O2•−) in HepG2 homogenates was determined by lucigenin-enhanced chemiluminescence.S4 Following the various treatment conditions, cells were homogenized in a buffer (20 mmol/L H2KPO4 and 1 mmol/L EDTA supplemented with aprotinin, leuprotinin, pepstatin and PMSF). The total protein quantified using the Bicinchoninic acid (BCA) assay (Pierce Biotechnology). To 50 μg of total protein, NADPH (100 μmol/L) was added in a total volume of 500 μL, with lucigenin (5 μmol/L) and was injected automatically. Activity was determined by measuring luminescence over 200 s in a scintillation counter (Lumat LB 9507, Berthold, Germany). Basal values of NADPH oxidase activity were subtracted from the experimental values and expressed as RLU/min/μg protein […]
(§6) In situ quantification of ROS species
(§7) Superoxide dismutase (SOD) and catalase (CAT) activity assays, and in situ detection of vascular ROS content. The activity of the enzymes, SOD and CAT, was determined in cell homogenates using assay kits according to the manufacturer's instructions (Cayman; Cat No 706002 and 707002 respectively). A unit of SOD was defined as the amount of enzyme […]
(§8) Similarly, a unit of CAT was […]
defined as the amount required to form 1.0 nmol of formaldehyde per min at 25 °C.S5 […]
HepG2 cells were incubated in serum-free DMEM containing 2% fatty acid-free BSA (control) or palmitate conjugated BSA (100 μmol/L) in the presence of HS-glycomimetics (1 or 10 μmol/L) for 24 h. The cells were incubated for 30 min in Hepes-buffered solution containing 10 μmol/L dihydroethidium (DHE), which intercalates with DNA in the presence of ROS and is detectable by fluorescence. Cells were counterstained with the nuclear stain DAPI at 0.3 μmol/L. In the following 24 h, the cell cultures were examined using a fluorescence microscope (Leica DMIRB). Sections were photographed and fluorescence was quantified using ImageJ. […]

A further series relates to NADPH oxidase. The series is described as follows: NADPH oxidase activity (lucigenin chemiluminescence) in cell homogenates. Type of series: cell-based, human. On the set-up: concentration or dose not given beside the values. As to conditions: averaged % of increase (+) or decrease (−) compared to control (FFA induced oxidatively stressed endothelial cells), n = 3.
Source text: as §1, §2, §3
as §4, with “BSA. […]” for “BSA.”
(§9) H2DCFDA, Sigma) for 30 min at 37 °C, and the level of fluorescence was determined (excitation 490 nm; emission 540 nm) using a microplate reader (BioTek).
as §5, §6, §7, §8
(§10) defined as the amount required to form 1.0 nmol of formaldehyde per min at 25 °C.S5

Another series relates to nitric oxide (NO). The series is described as follows: NO release assay (DAF-2) in FFA-stressed cells. It is filed as cell-based, human. As to conditions: averaged % of increase (+) or decrease (−) compared to control (FFA induced oxidatively stressed endothelial cells), n = 3.
Source text: as §1, §2, §3, §4
NO release assay and Quantification of ROS production
NO release was determined using diaminofluorescein-2 (DAF-2).S3 The cells were washed with PBS and incubated with L-arginine (100 μmol/L in PBS) for 5 min at 37 °C before incubation with DAF-2 (0.1 μmol/L) for 2 min, followed by the calcium ionophore calimycin (A23187, 1 μmol L) for 30 min. L-NAME (100 μmol/L), a nitric oxide inhibitor (NOS), was also added 20 min before the addition of L-arginine in some experiments to determine the involvement of NOS. DAF-2 fluorescence (arbitrary units, AU) was quantified using a microplate reader (BioTek) with excitation and emission wavelengths of 485 nm and 540 nm, respectively. The auto-fluorescence was subtracted from each value. […]
as §9, §5, §6, §7, §8, §10

Series [2] is described as follows: Microsomal metabolic stability, mouse liver microsomes. As to conditions: liver microsomes (pooled), pH 7.4. On the technique in general: Liver microsomes are vesicles of endoplasmic reticulum, rich in cytochrome P450 enzymes.
Protocol: MLM assay (controls: diphenhydramine and diazepam). hERG assay (controls: quinidine and dimethylsulfoxide).
Pooled liver microsomes (final protein concentration 0.5 mg/mL), 0.1 M phosphate buffer pH
7.4 and test compound (final substrate concentration 3 µM; final DMSO concentration 0.25 %)
are pre-incubated at 37 °C prior to the addition of NADPH (final concentration 1 mM) to initiate
included for each compound tested where 0.1 M phosphate buffer pH 7.4 is added instead of
are stopped by transferring 20 µL of incubate to 60 µL methanol at the appropriate time points.
The termination plates are centrifuged at 2,500 rpm for 20 min at 4 °C to precipitate the protein.
Following protein precipitation, the sample supernatants are combined in cassettes of up to 4
compounds, internal standard is added and samples analysed using Cyprotex generic
LC-MS/MS conditions. From a plot of ln peak area ratio (compound peak area /internal
standard peak area) against time, the gradient of the line is determined. Subsequently, half-
life and intrinsic clearance are calculated using the equations below:
Relevant control compounds are assessed, ensuring intrinsic clearance values fall within the
Series [3] can be described thus: Microsomal metabolic stability, rat liver microsomes. Type of series: in vitro ADME. The settings on record: liver microsomes (pooled); for microsomal CLint at 0.75 h, 3 µM / microsomal CLint at 3 µM: pH 7.4; for half-life at 0.75 h, 3 µM / half-life at 3 µM: pH 7.4, 3 µM, 0.5 mg/mL protein, read-out: RLM t1/2. As for the experimental part:
Microsomal Metabolic Stability […]
the reaction. The final incubation volume is 50 µL. A minus cofactor control incubation is […]
NADPH (minus NADPH). Two control compounds are included with each species. All incubations are performed singularly for each test compound. Each compound is incubated for 0, 5, 15, 30 and 45 min. The control (minus NADPH) is incubated for 45 min. The reactions […]
Elimination rate constant (k) = (- gradient)
Intrinsic clearance (CLint)(µL/min/mg protein) = where V = Incubation volume (µL)/Microsomal protein (mg) […]
specified limits (if available).
(Molecular Devices LLC), which simultaneously performs electrophysiology measurements for […]
All cell suspensions, buffers and […]

A further series in a line: Chemical stability. It is filed as physicochemical. An excerpt: | column: α-4; β-5; R-10; S-10

For orientation: microsomal CLint means a measure of how fast metabolising enzymes remove a compound, apart from limits set by blood flow. For the compound `COC(=O)c1cc(OC[C@H](COS(=O)(=O)[O-])OS(=O)(=O)[O-])ccc1OCCCCOS(=O)(=O)[O-].[Na+].[Na+].[Na+]` [Compound R-10, sodium (R)-3-(3-(methoxycarbonyl)-4-(4-(sulfonatooxy)butoxy)phenoxy)propane-1,2-diyl bis(sulfate)], the ROS production in series [1] is −23%. In the series on NADPH oxidase, the NADPH oxidase activity is given as −31%. The NO production entry in the series on nitric oxide (NO) is reported as “+52%”. Further, in series [2], the half-life at 0.75 h, 3 µM came to 57.5 h and the microsomal CLint at 0.75 h, 3 µM was 0.402 µL/min/mg. Also, in series [3], the microsomal CLint at 0.75 h, 3 µM worked out at 4.11 µL/min/mg and the half-life at 0.75 h, 3 µM was determined as 5.63 h. Besides, in the series “Chemical stability”, the Chemical stability result is given as “Yes”.
Take `COC(=O)c1cc(OC[C@@H](COS(=O)(=O)[O-])OS(=O)(=O)[O-])ccc1OCC(COS(=O)(=O)[O-])OS(=O)(=O)[O-].[Na+].[Na+].[Na+].[Na+]` (mixture of isomers) [α-4, sodium 3-(4-((S)-2,3-bis(sulfonatooxy)propoxy)-2-(methoxycarbonyl)phenoxy)propane-1,2-diyl bis(sulfate)]: the ROS production in series [1] was −28%. Also, the NADPH oxidase activity in the series on NADPH oxidase is on record as −29%. Besides, in the series with nitric oxide (NO), the NO production entry is listed as “+110%”. In addition, the half-life at 3 µM in series [2] is 30.7 h; in series [3], 2.42 h. Further, the values for the microsomal CLint at 3 µM in series [2] and in series [3] were 0.755 µL/min/mg and 9.56 µL/min/mg, respectively. In “Chemical stability”, the Chemical stability entry is recorded as “Yes”.
For `COC(=O)c1cc(OC[C@@H](COS(=O)(=O)[O-])OS(=O)(=O)[O-])ccc1OCCCCOS(=O)(=O)[O-].[Na+].[Na+].[Na+]` [Compound S-10, sodium (S)-3-(3-(methoxycarbonyl)-4-(4-(sulfonatooxy)butoxy)phenoxy)propane-1,2-diyl bis(sulfate)], the ROS production in series [1] is recorded as −39%. Also, the NADPH oxidase activity in the series with NADPH oxidase is reported as −27%. The NO production entry in the series on nitric oxide (NO) is “+63%”. Besides, the microsomal CLint at 0.75 h, 3 µM was found to be 0.333 µL/min/mg in series [2] and 12.8 µL/min/mg in series [3]. Further, the half-life at 0.75 h, 3 µM in series [3] came out at 1.82 h. For the same compound, the Chemical stability result in “Chemical stability” is given as “Yes”.
Turning to `O=C([O-])c1cc(OC[C@H](COS(=O)(=O)[O-])OS(=O)(=O)[O-])ccc1OCC(COS(=O)(=O)[O-])OS(=O)(=O)[O-].[Na+].[Na+].[Na+].[Na+].[Na+]` (mixture of isomers) [β-5, sodium 5-((R)-2,3-bis(sulfonatooxy)propoxy)-2-(2,3-bis(sulfonatooxy)propoxy)benzoate], the ROS production in series [1] is recorded as −29%. Also, in the series on NADPH oxidase, the NADPH oxidase activity is on record as −31%. Also, the NO production result with nitric oxide (NO) is “+62%”. Further, in series [2], the half-life at 3 µM came to 8.03 h and the microsomal CLint at 3 µM was 2.88 µL/min/mg. Also, in series [3], the microsomal CLint at 3 µM was determined as 0.649 µL/min/mg and the half-life at 3 µM is 35.7 h. Further, the Chemical stability entry in “Chemical stability” is reported as “Yes”.
